From paper PMC12177060, “Blocking XIAP:CASP7-p19 selectively induces apoptosis of CASP3/DR malignancies by a novel reversible small molecule” (Cell Death & Disease, 2025)

Molecular target: T1, CASP7 (Homo sapiens, UniProt P55210)
T1 construct: human CASP7 cDNA in pET28a, C-terminal 6-His tag, E. coli BL21(DE3), Ni-NTA purified; active processed form, MW 70 kDa hetero-tetramer (p19/p12)
T1 sequence (P55210 24-198): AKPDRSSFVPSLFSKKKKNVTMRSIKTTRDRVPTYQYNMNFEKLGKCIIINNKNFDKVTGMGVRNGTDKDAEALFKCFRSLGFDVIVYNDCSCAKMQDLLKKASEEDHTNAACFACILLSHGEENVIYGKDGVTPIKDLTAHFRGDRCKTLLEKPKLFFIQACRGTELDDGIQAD
T1 sequence (P55210 207-303): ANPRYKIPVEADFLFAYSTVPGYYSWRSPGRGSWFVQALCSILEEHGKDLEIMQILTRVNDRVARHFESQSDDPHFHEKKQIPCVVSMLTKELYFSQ
Test: SPR (BIAcore), His-tagged CASP7 immobilised on NiNTA chip
Assay type: binding
Settings: allosteric site near Cys246/Asp93 (proposed), reversible; 2.5, 5 or 10 μM injected

Kd: 3.1 µM
SMILES: COc1cc2c(-c3ccc(O)cc3)nc3c(c(C)nn3-c3ccccc3)c2cc1OC [compound 643943, 643943]
